# Assay results taken from PMC11738990, “A small-molecule TNIK inhibitor targets fibrosis in preclinical and clinical models” (Nature Biotechnology, 2024).
# Values joined by “and” are separate entries in the source; they are usually repeats but may differ in a detail not shown here. Identical values can stand only once.
# Legend:
# MRC-5 cells = assay: TGF-β-induced α-SMA protein expression, western blot; format: cell-based, human; conditions: TGF-β1 2 ng/ml, 72 h; read-out: IC50, TGF-β-induced α-SMA/GAPDH
# Method: MRC-5 cells were cultured in a monolayer with DMEM high-glucose medium supplemented with 10% FBS at 37 °C with 5% CO2. Cells were seeded in six-well plates in three replicate wells per condition at a density of 2.5 × 10^5 cells per well and cultured for 24 h. […] Vehicle (2% FBS–DMEM, containing 0.1% DMSO) was added into the blank control group and the model group, and pre-incubation was continued for 2 h. Next, TGF-β1 was added into each well of the administration group and the model group (final concentration in each well was 2 ng ml^−1), and the same volume of vehicle was added into each well of the blank control group for 72 h of incubation (the culture medium was changed once after 48 h of incubation). After incubation, the cells were collected and digested with 0.5% trypsin, protein was extracted and total protein content was determined by the BCA method.
# For whole-cell lysates, cells were collected and lysed on ice for 20 min with RIPA buffer with protease and phosphatase inhibitors (cOmplete and PhosSTOP, Roche). The protein concentration of the cell lysates was determined using the BCA Protein Assay Kit. […] Integrated intensity of bands from 16-bit blot images was used for quantitation with the software Image Studio Lite. Protein-quantification data of two independent experiments were calculated and analyzed using GraphPad.
# C57BL/6 mice [1] = assay: Bleomycin-induced lung fibrosis model; format: in vivo, mouse; conditions: for HE staining (inflammation area) / IL-1beta in BALF / IL-6 in BALF / monocytes, cell count in BALF / neutrophils, cell count in BALF / Lung function (Penh) / Masson Trichrome's staining / Modified Ashcroft Score / collagen I / α-SMA: individual animals; for Lung function (Penh) / Masson Trichrome's staining / Modified Ashcroft Score / collagen I / α-SMA: Fig 3B-C
# Method: (§1) Mice received bleomycin on day 1 at a dose of 0.66 mg per kg (equivalent to 1 U per kg), in a volume of 50 μl by intratracheal administration, or received saline (sham group). On day 7, dosing with the corresponding compounds was started. The vehicle group (group 1) was treated with 0.5% methylcellulose BID. […] On days 5 and 21, lung function measurement was performed. On day 28, all animals were killed, and blood and tissue samples were collected along with BALF.
# (§2) Lung function was measured according to the HDB standard protocol. Expiratory time, relaxation time, peak expiratory flow and peak inspiratory flow were collected and used to calculate Penh data.
# Mice were first anesthetized with Zoletil–xylazine (50 mpk and 10 mpk, i.p.). Next, a 1.5–2-cm longitudinal incision was made on the ventral side of the neck to expose the trachea by blunt dissection, and curved forceps were placed underneath the trachea. A 10–12-cm piece of suture was then threaded underneath the trachea using forceps. The ends of the suture were then pulled cranially to ‘stretch’ the trachea toward the surgeon. A 20-G needle was then used to poke a hole in the trachea as close to the larynx as possible. A 22-G blunt stainless steel needle connected to PE tubing was placed in the hole and inserted approximately 5–8 mm into the trachea. The cannula was secured in the trachea by tying the suture around it with an overhand knot. A 1-ml syringe containing 0.4 ml saline was gently pushed forward and backward three times to recover BALF fluid. BALF was transferred into empty tubes and stored on ice. This process was repeated twice with 0.3 ml saline for a total volume of 1 ml.
# Total cell numbers were counted with a standard hemocytometer by mixing 20 μl BALF with 20 μl trypan blue. Cytospins were prepared by cytocentrifugation using Cytospins at 106g for 5 min, and then smears of BALF cells were stained with Diff-Quick stain. Cell differentiation was performed by counting at least 400 cells using standard hemocytologic criteria to classify them as alveolar macrophages or monocytes, neutrophils, eosinophils or lymphocytes. The rest of the BALF fluid was centrifuged, and supernatants were collected and stored at −80 °C for cytokine, chemokine and total protein analysis.
# From the collected BALF, concentrations of cytokines were measured from mice in groups 2–7 killed on day 28. Mouse BALF cytokines and chemokines were measured using the ELISA Analysis Kit (Sinobest Bio). Mouse BALF soluble collagen was measured using the Soluble Collagen kit (Biocolor). Mouse lung hydroxyproline content was measured using the Hydroxyproline Assay Kit (Njjcbio).
# Left lung lobes were removed from each mouse and fixed in 10% NBF solution, embedded in paraffin and processed to obtain 4-μm sections for staining with H&E. H&E-stained slides were scanned using an Aperio ScanScope Model CS2 (Leica) at ×200 magnification. Images were then opened in the HALO Plus 5 workstation (version 2.3, Indica Labs) program. Using the pen annotation tool, the whole-lung section was selected as an annotation layer. The area of vessels was defined as background using the exclusion drawing tool. The total inflammation area was quantified by selecting the dark blue inflammation cells using the pen annotation tool manually. The percentage of H&E staining (inflammation area/total area of the lung) in the selected annotation was then calculated using the program.
# Masson’s trichrome staining was conducted using a ready-to-use kit (Trichrome Stain (Masson) Kit, HT15, Sigma-Aldrich) as described by the manufacturer.
# Lung sections were cut at a thickness of 4 μm, dried in an oven for 1 h and stained with M&T using our standard protocol.
# Sprague Dawley rats [2] = assay: Bleomycin-induced lung fibrosis model, inhalation administration; format: in vivo, rat; conditions: individual animals, Fig 4
# Method: On day 1 of the study, bleomycin hydrochloride was administered to 8–9-week-old Sprague Dawley rats at a final concentration of 1.5 mg ml^−1 in sodium chloride solution (dosed volume at 1.0 ml per kg) by intratracheal atomization (once in the morning and once in the afternoon) to build the pulmonary fibrosis model.
# A German PARI compression atomizer (PARI TurboBOY) was set at an aerosol flow rate of 9–10 l min^−1. […] The dilution flow of aerosol was set at 0 l min^−1, and the pumping-out flow from the chamber was set at 6 l min^−1. The fluid rate was set at 0.5 ml min^−1 for test article replenishment. Before nebulization, aerosol-generation conditions were validated three times.
# And these parameters were recorded in real time during the experiment.
# For concentration assessment, a glass fiber filter membrane (φ = 37 mm) was used to measure aerosol concentrations during drug administration from approximately day 8 to day 28. Sampling was taken at 5 min (±1 min) after drug administration from a random exposure port. […] Aerosol particle size parameters were calculated with the system software: median mass aerodynamic diameter (MMAD), geometric standard deviation, fine particle fraction (percentage of fine particles with MMAD < 5 μm), etc.
# On day 29 and before euthanasia, animals were anesthetized with chloral hydrate (90 mg ml^−1, 5 ml per kg, i.p.). Necks were cut longitudinally at the middle to isolate trachea, and a catheter was intubated into the trachea toward the tail direction and fixed with a suture thread. The anesthetized animals were placed into the plethysmography chamber, to which the airway was connected. The AniRes2005 animal lung function-analysis system was used to assess parameters including FVC, airway resistance and pulmonary compliance. The ventilator respiration rate was set to 65 beats per minute; the respiration ratio was set to 20:10; the negative pressure controller was set to 30 cm H2O. FVC detection was set to pressure-control mode, while pressure was set to 30 cm H2O. The startup mode was selected to automatically detect at the end of breath, and the ‘Start’ button was clicked to passively inhale and then turned to exhale after reaching the set pressure value. Next, the ‘Stop’ button was clicked to complete an FVC detection. Each animal was evaluated for FVC at least five times. The final result was the mean value after the maximum and minimum data were excluded for analysis.
# C57BL/6 mice [3] = assay: Bleomycin-induced lung fibrosis model, combination with pirfenidone; format: in vivo, mouse; conditions: INS018_055 3mpk BID; 3 mg/kg
# Method: as §1, §2
# Lung sections were cut at a thickness of 4 μm, dried in an oven for 1 h and stained with M&T using our standard protocol. Briefly, sections were stained with Weigert’s iron hematoxylin working solution for 10 min, stained in Biebrich scarlet–acid fuchsin solution for 10 min, differentiated in phosphomolybdic–phosphotungstic acid solution for 5 min or until the collagen was not red, transferred to aniline blue solution, stained for 1 min and then dedifferentiated in 1% acetic acid solution. Next, sections were dehydrated and coverslipped for subsequent image analysis. For image analysis of collagen deposition, Masson’s trichrome-stained slides were scanned by using Aperio ScanScope Model CS2 (Leica) at ×200 magnification. Images were then opened with HALO. Using the pen tool, the whole left lung section was selected as an annotation layer. The area occupied by blue collagen fibers was measured using the pen tool. The percentage of fibrosis (positive areas) in the selected annotation was then calculated with the program. Fibrosis was expressed as a percentage per lung section.
# Sections (4 μm thick) were placed on slides, and, after overnight drying, paraffin was removed with xylene. Next, sections were placed in a graded ethanol series and immersed in distilled water. After heat-induced citrate antigen (pH 6.0) unmasking, sections were immersed in 3% hydrogen peroxide solution for 5 min. […] Next, secondary antibodies conjugated to HRP were added. For image analysis of fibrosis, stained sections were used and scanned with the Aperio CS2 Scanner machine. Images were then opened with HALO. Using the pen tool, the whole left lung section was selected as an annotation layer. The bronchus was excluded in the annotation layer. The area occupied by collagen fibers was measured using the ‘Area Quantification v2.1.3’ module. The percentage of positive areas in the selected annotation was then calculated using the program.
# [4] = system: primary bronchial epithelial cells from donors with IPF; assay: EMT by FN1, high-content analysis; format: cell-based, human; conditions: three donors with IPF
# Method: For the measurement of EMT by FN1, on the first day, human primary bronchial epithelial cells were seeded. After 2 d, the medium of the cells was refreshed. […] After 1 h, all cells were treated with 5 ng ml^−1 TGF-β1.
# Segmentation and quantification of α-SMA and FN1 immunoreactivity was carried out with an HCA algorithm, with density × area (D × A) output. Data normalization of raw α-SMA or FN1 (D × A) to percent inhibition values was performed on a plate-to-plate basis.
# Percent inhibition = (100 − (μp − Xi)/(μp − Xn)) × 100
# μp is the average α-SMA or FN1 value of the positive control (TGF-β1 + 1 μM SB525334). μn is the average α-SMA or FN1 value of the vehicle control (TGF-β1 + 0.1% DMSO). Xi is the compound α-SMA or FN1 value. IC50 values for all compounds (if calculable, based on the point of inflection) were calculated with GraphPad Prism using non-linear fit of log (inhibitor) versus response (four parameter).
# DAPI fluorescence was applied for HCA-based quantification of the number of imaged cells on a plate-to-plate basis.
# Percent remaining cells = (Xi/μn) × 100%
# μn is the average number of nuclei of the vehicle control (TGF-β1 + 0.1% DMSO). Xi is the compound number of nuclei.
# Sprague Dawley rats [5] = assay: Bleomycin-induced skin scarring model; format: in vivo, rat; conditions: 0.05% topical
# Method: Animals were anesthetized using isoflurane. Using a 1-ml syringe containing a 27-gauge needle, 100 µl bleomycin (1 mg ml^−1 in PBS) solution was injected subcutaneously into two sites on the shaved dorsal regions, QD for 4 weeks. Rats in the naive control group were injected daily with an equivalent volume of sterile PBS. […] After 4 weeks of treatment, animals were killed with CO2, and skin was collected.
# Hydroxyproline and collagen concentrations were normalized to total protein content using the Bradford method.
# NHDF cells = assay: α-SMA evaluation in NHDF; format: cell-based, human; conditions: TGF-β 0.1 ng/ml, 72 h; read-out: IC50, α-SMA expression
# Method: The medium was then replaced with an assay medium containing or lacking (control conditions) the test compound, and TGF-β (0.1 ng ml^−1) was added or not (unstimulated control). […] All experimental conditions were performed in five replicates. For in situ immunolabeling and image analysis, at the end of the incubation, fibroblasts were rinsed, fixed and permeabilized. […] Image acquisition was performed using a high-resolution imaging system, the IN Cell Analyzer 2200 (GE Healthcare) automated microscope (objective lens, ×20). Five pictures per well were taken. Labeling was quantified by measuring the fluorescence intensity of α-SMA signals normalized to the total number of nuclei identified (integration of numerical data was performed with the Developer Toolbox 1.5, GE Healthcare software).
# [6] = G2 INS018_055 3mpk BID, 3 mg/kg
# [7] = G3 INS018_055 10mpk BID, 10 mg/kg
# [8] = G4 INS018_055 30mpk BID, 30 mg/kg
smiles,measurement,setting,value
"CC(C)n1cnc(-c2ccc(F)cc2)c1-c1nc(C(=O)Nc2ccc(N3CCN(C)CC3)cc2)c[nH]1 [INS018_055, 2-[4-(4-fluorophenyl)-1-(prop-2-yl)imidazol-5-yl]-N-[4-(4-methylhexahydropyrazin-1-yl)phenyl]-1H-imidazole-4-carboxamide]",IC50,MRC-5 cells,27.1 nM
same,reduction in fibrotic area vs vehicle,C57BL/6 mice [1]; 3 mg per kg BID,over 50%
same,reduction in fibrotic area vs vehicle,C57BL/6 mice [1]; 10 mg per kg BID,more than 75%
same,reduction in fibrotic area vs vehicle,C57BL/6 mice [1]; 30 mg per kg BID,more than 75%
same,HE staining (inflammation area),C57BL/6 mice [1]; 3mpk BID,16.35 and 17.87 and 12.71 and 1.09 and 10.2 and 19.47 and 0.4 and 43.83 and 48.17 and 4.33
same,IL-1beta in BALF,C57BL/6 mice [1]; 3mpk BID,154.02 and 147.65 and 144.47 and 164.21 and 155.93 and 168.67 and 177.59
same,IL-6 in BALF,C57BL/6 mice [1]; 3mpk BID,126.67 and 118.83 and 123.05 and 144.15 and 121.24 and 147.77 and 123.65 and 122.44 and 139.33
same,"monocytes, cell count in BALF",C57BL/6 mice [1]; 3mpk BID,48000 and 77000 and 128800 and 211900 and 99500 and 150400 and 143100 and 79600 and 62000
same,"neutrophils, cell count in BALF",C57BL/6 mice [1]; 3mpk BID,31200 and 500 and 700 and 0 and 1000
same,HE staining (inflammation area),C57BL/6 mice [1]; 10mpk BID,21.7 and 0.11 and 5.58 and 22.87 and 0.24 and 8.94 and 0.45 and 42.15 and 0.46 and 0.26
same,IL-1beta in BALF,C57BL/6 mice [1]; 10mpk BID,241.92 and 204.98 and 199.25 and 226 and 212.62 and 229.18 and 207.53 and 202.43 and 189.69 and 227.91
same,IL-6 in BALF,C57BL/6 mice [1]; 10mpk BID,201.44 and 191.8 and 156.22 and 187.57 and 178.53 and 200.84 and 157.42 and 203.86 and 172.5
same,"monocytes, cell count in BALF",C57BL/6 mice [1]; 10mpk BID,40000 and 80000 and 116200 and 4200 and 172000 and 84000 and 29600 and 114100 and 79200 and 38100
same,"neutrophils, cell count in BALF",C57BL/6 mice [1]; 10mpk BID,500 and 0 and 200 and 700
same,HE staining (inflammation area),C57BL/6 mice [1]; 30mpk BID,48.7 and 0.62 and 0.2 and 3.2 and 0.42 and 0.24 and 10.41 and 0.95 and 7.2 and 3.59
same,IL-1beta in BALF,C57BL/6 mice [1]; 30mpk BID,205.62 and 188.42 and 203.7 and 211.35 and 200.52 and 228.54 and 189.06 and 180.78 and 190.33 and 224.09
same,IL-6 in BALF,C57BL/6 mice [1]; 30mpk BID,147.17 and 151.39 and 139.93 and 159.83 and 139.33 and 174.91 and 170.69 and 171.9 and 168.28
same,"monocytes, cell count in BALF",C57BL/6 mice [1]; 30mpk BID,53400 and 20000 and 196300 and 26700 and 124800 and 27500 and 26500 and 61600 and 54600
same,"neutrophils, cell count in BALF",C57BL/6 mice [1]; 30mpk BID,0 and 400 and 1300 and 900
same,Lung function (Penh),C57BL/6 mice [1]; [6],0.6758 and 0.6536 and 0.6784 and 0.8035 and 0.7941 and 0.8536 and 2.1862 and 0.7195 and 0.614 and 0.4863 and 3.086 and 0.8355 and 0.9151
same,Masson Trichrome's staining,C57BL/6 mice [1]; [6],13.42 and 12.85 and 13.06 and 0.67 and 7.67 and 20.55 and 0.21 and 52.81 and 60.17 and 6.1
same,Modified Ashcroft Score,C57BL/6 mice [1]; [6],4.5 and 1.5 and 6 and 3.25
same,collagen I,C57BL/6 mice [1]; [6],1.64 and 0.35 and 0.02 and 1.98 and 3.34 and 1.23 and 0.25 and 0.51 and 0.22 and 0.32
same,α-SMA,C57BL/6 mice [1]; [6],0.37 and 0.33 and 0.09 and 0.57 and 0.58 and 0.29
same,Lung function (Penh),C57BL/6 mice [1]; [7],0.921 and 0.5921 and 0.7137 and 3.621 and 0.8031 and 0.5775 and 0.6428 and 0.5842 and 0.678 and 0.5758 and 0.618 and 0.6177 and 0.711
same,Masson Trichrome's staining,C57BL/6 mice [1]; [7],19.44 and 0.05 and 6.38 and 17.98 and 0.22 and 11.46 and 0.26 and 36.84 and 1 and 0.45
same,Modified Ashcroft Score,C57BL/6 mice [1]; [7],1.25 and 2.5 and 0.75 and 3 and 4.5 and 0.25
same,collagen I,C57BL/6 mice [1]; [7],0.04 and 2.29 and 0.08 and 0.17 and 0.07 and 0.11 and 0.36 and 0.22 and 2.99 and 3.49
same,α-SMA,C57BL/6 mice [1]; [7],0.2 and 0.91 and 0.22 and 0.38 and 0.09 and 0.78 and 0.06 and 0.41 and 2.61
same,Lung function (Penh),C57BL/6 mice [1]; [8],0.81 and 0.4773 and 0.7792 and 0.5085 and 0.4976 and 0.9972 and 0.6276 and 0.4738 and 0.7711 and 0.8367 and 0.5642 and 0.8492 and 0.6495
same,Masson Trichrome's staining,C57BL/6 mice [1]; [8],54.82 and 0.37 and 1.9 and 3.57 and 0.51 and 0.16 and 12.49 and 1.77 and 9.46 and 7.1
same,Modified Ashcroft Score,C57BL/6 mice [1]; [8],1.5 and 3 and 6
same,collagen I,C57BL/6 mice [1]; [8],0.43 and 0.13 and 2.32 and 1.69 and 1.28 and 0.07 and 1.12 and 0.03 and 0.15 and 0.02
same,α-SMA,C57BL/6 mice [1]; [8],0.1 and 0.05 and 0.38 and 0.09 and 0.73 and 0.22 and 0.72 and 0.11 and 0.15 and 0.18
same,Cdyn,Sprague Dawley rats [2]; INS018_055 0.1 mg/mL,0.2868 mL/cmH2O and 0.282 mL/cmH2O and 0.2528 mL/cmH2O and 0.2276 mL/cmH2O and 0.2464 mL/cmH2O and 0.2949 mL/cmH2O and 0.266 mL/cmH2O and 0.2918 mL/cmH2O and 0.3725 mL/cmH2O
same,FVC,Sprague Dawley rats [2]; INS018_055 0.1 mg/mL,11.667 and 10.372 and 9.331 and 9.408 and 9.013 and 11.225 and 10.246 and 9.406 and 11.458
same,MT staining for fibrosis,Sprague Dawley rats [2]; INS018_055 0.1 mg/mL,39.4049 and 24.0295 and 21.4518 and 29.9242 and 25.5526 and 41.2629 and 23.5476 and 24.3272 and 18.8851
same,Modified Ashcroft Score,Sprague Dawley rats [2]; INS018_055 0.1 mg/mL,3.58 and 3.5 and 3.67 and 4.67
same,RL,Sprague Dawley rats [2]; INS018_055 0.1 mg/mL,0.2183 cmH2O and 0.2228 cmH2O and 0.249 cmH2O and 0.2763 cmH2O and 0.2553 cmH2O and 0.2139 cmH2O and 0.2369 cmH2O and 0.215 cmH2O and 0.1673 cmH2O
same,Cdyn,Sprague Dawley rats [2]; INS018_055 0.3 mg/mL,0.1877 mL/cmH2O and 0.26 mL/cmH2O and 0.28 mL/cmH2O and 0.2261 mL/cmH2O and 0.2364 mL/cmH2O and 0.2626 mL/cmH2O and 0.2848 mL/cmH2O and 0.214 mL/cmH2O and 0.2795 mL/cmH2O
same,FVC,Sprague Dawley rats [2]; INS018_055 0.3 mg/mL,8.356 and 10.531 and 9.955 and 8.979 and 9.285 and 9.684 and 11.437 and 8.52 and 10.758
same,MT staining for fibrosis,Sprague Dawley rats [2]; INS018_055 0.3 mg/mL,37.0531 and 32.9417 and 33.2766 and 28.9122 and 24.8997 and 24.7844 and 23.0018 and 21.403 and 19.6831
same,Modified Ashcroft Score,Sprague Dawley rats [2]; INS018_055 0.3 mg/mL,3.33 and 3.5 and 3.42 and 3.17 and 3.25
same,RL,Sprague Dawley rats [2]; INS018_055 0.3 mg/mL,0.334 cmH2O and 0.2417 cmH2O and 0.2246 cmH2O and 0.2783 cmH2O and 0.266 cmH2O and 0.2397 cmH2O and 0.2213 cmH2O and 0.2931 cmH2O and 0.2253 cmH2O
same,Cdyn,Sprague Dawley rats [2]; INS018_055 1 mg/mL,0.2887 mL/cmH2O and 0.2534 mL/cmH2O and 0.2831 mL/cmH2O and 0.2977 mL/cmH2O and 0.3373 mL/cmH2O and 0.3256 mL/cmH2O and 0.3052 mL/cmH2O and 0.2663 mL/cmH2O and 0.1759 mL/cmH2O
same,FVC,Sprague Dawley rats [2]; INS018_055 1 mg/mL,11.605 and 10.16 and 11.107 and 11.731 and 11.449 and 11.248 and 11.212 and 9.823 and 10.688
same,MT staining for fibrosis,Sprague Dawley rats [2]; INS018_055 1 mg/mL,13.0601 and 19.1932 and 11.5913 and 20.3302 and 12.2482 and 5.166 and 2.8883 and 26.6827 and 9.6738
same,Modified Ashcroft Score,Sprague Dawley rats [2]; INS018_055 1 mg/mL,3.08 and 2.5 and 1.92 and 1.58
same,RL,Sprague Dawley rats [2]; INS018_055 1 mg/mL,0.2246 cmH2O and 0.2544 cmH2O and 0.2308 cmH2O and 0.2117 cmH2O and 0.1856 cmH2O and 0.1933 cmH2O and 0.2063 cmH2O and 0.2431 cmH2O and 0.3604 cmH2O
same,Cdyn,Sprague Dawley rats [2]; INS018_055 6 mg/mL,0.2872 mL/cmH2O and 0.2596 mL/cmH2O and 0.2974 mL/cmH2O and 0.09892 mL/cmH2O and 0.2655 mL/cmH2O and 0.2689 mL/cmH2O and 0.283 mL/cmH2O and 0.2425 mL/cmH2O and 0.303 mL/cmH2O
same,FVC,Sprague Dawley rats [2]; INS018_055 6 mg/mL,10.938 and 9.019 and 10.156 and 12.074 and 10.094 and 10.135 and 10.127 and 8.751 and 10.893
same,MT staining for fibrosis,Sprague Dawley rats [2]; INS018_055 6 mg/mL,11.7864 and 15.1925 and 36.9642 and 17.393 and 15.0833 and 12.2135 and 12.9504 and 11.5722 and 12.5986
same,Modified Ashcroft Score,Sprague Dawley rats [2]; INS018_055 6 mg/mL,2.25 and 3.08 and 3
same,RL,Sprague Dawley rats [2]; INS018_055 6 mg/mL,0.2197 cmH2O and 0.2419 cmH2O and 0.2117 cmH2O and 0.6313 cmH2O and 0.2427 cmH2O and 0.2338 cmH2O and 0.2227 cmH2O and 0.2591 cmH2O and 0.2072 cmH2O
same,Modified Ashcroft Score,C57BL/6 mice [3],5.75 and 4.5 and 3
same,IC50,[4],250 nM and 320 nM and 400 nM
same,Hydroxyproline in skin,Sprague Dawley rats [5],1036.36 and 1122.01 and 1193.18 and 833.714 and 660.98
same,Total collagen in skin,Sprague Dawley rats [5],114.74 and 120.73 and 157.27 and 80.17 and 90.17
same,IC50,NHDF cells,25 nM
